Laboratory results as given in ChEMBL document CHEMBL4351030, “Synthesis and biological evaluation of 3-carbamate smilagenin derivatives as potential neuroprotective agents” (2019).
Active and inactive are the calls of the source. The rule behind the calls is not given here.

What was measured:
SH-SY5Y [1] = test: Neuroprotective activity against H2O2-induced oxidative stress in human SH-SY5Y cells assessed as cell viability at 10 uM preincubated for 2 hrs followed by H2O2 stimulation for 30 mins followed by further incubation for 24 hrs by MTT assay relative to control; assay type: functional; conditions: for viability at 10 µM: read-out: Activity
RAW264.7 = test: Neuroprotective activity against LPS-induced oxidative stress in mouse RAW264.7 cells assessed as reduction in NO production at 10 uM preincubated for 30 mins followed by LPS stimulation for 20 hrs by Griess reagent based microplate reader assay relative to control; assay type: functional
SH-SY5Y [2] = test: Neuroprotective activity against oxygen-glucose deprivation-induced cell damage in human SH-SY5Y cells assessed as increase in cell viability measured after 5.5 hrs of post OGD challenge by MTT assay; assay type: functional, cell-based
SH-SY5Y [3] = test: Neuroprotective activity against H2O2-induced oxidative stress in human SH-SY5Y cells assessed as cell viability at 1 mM preincubated for 2 hrs followed by H2O2 stimulation for 30 mins followed by further incubation for 24 hrs by MTT assay relative to control; assay type: functional; conditions: read-out: Activity

Structure (SMILES): C[C@@H]1CC[C@@]2(OC1)O[C@H]1C[C@H]3[C@@H]4CC[C@@H]5C[C@@H](OC(=O)N6CCN(Cc7ccc(Cl)cc7)CC6)CC[C@]5(C)[C@H]4CC[C@]3(C)[C@H]1[C@@H]2C
- viability at 10 µM (SH-SY5Y [1]): 34.8%
- inhibition at 10 µM (RAW264.7): 15.2%
- Activity (SH-SY5Y [2]): Active

Structure (SMILES): CC(C)CNC(=O)O[C@H]1CC[C@@]2(C)[C@H](CC[C@@H]3[C@@H]2CC[C@]2(C)[C@@H]4[C@H](C[C@@H]32)O[C@]2(CC[C@@H](C)CO2)[C@H]4C)C1
- viability at 10 µM (SH-SY5Y [1]): 9.2%

Structure (SMILES): C[C@@H]1CC[C@@]2(OC1)O[C@H]1C[C@H]3[C@@H]4CC[C@@H]5C[C@@H](O)CC[C@]5(C)[C@H]4CC[C@]3(C)[C@H]1[C@@H]2C
- viability at 10 µM (SH-SY5Y [1]): 3.5%

Structure (SMILES): COc1ccc(CNC(=O)O[C@H]2CC[C@@]3(C)[C@H](CC[C@@H]4[C@@H]3CC[C@]3(C)[C@@H]5[C@H](C[C@@H]43)O[C@]3(CC[C@@H](C)CO3)[C@H]5C)C2)cc1
- viability at 10 µM (SH-SY5Y [1]): 17.9%
- inhibition at 10 µM (RAW264.7): 9.2%

Structure (SMILES): C[C@@H]1CC[C@@]2(OC1)O[C@H]1C[C@H]3[C@@H]4CC[C@@H]5C[C@@H](OC(=O)NCc6ccccc6)CC[C@]5(C)[C@H]4CC[C@]3(C)[C@H]1[C@@H]2C
- viability at 10 µM (SH-SY5Y [1]): 5.8%

Structure (SMILES): C[C@@H]1CC[C@@]2(OC1)O[C@H]1C[C@H]3[C@@H]4CC[C@@H]5C[C@@H](OC(=O)N6CCN(Cc7ccc(C#N)cc7)CC6)CC[C@]5(C)[C@H]4CC[C@]3(C)[C@H]1[C@@H]2C
- viability at 10 µM (SH-SY5Y [1]): 40.5%
- inhibition at 10 µM (RAW264.7): 23.5%
- Activity (SH-SY5Y [2]): Active

Structure (SMILES): COc1cc(CN2CCN(C(=O)O[C@H]3CC[C@@]4(C)[C@H](CC[C@@H]5[C@@H]4CC[C@]4(C)[C@@H]6[C@H](C[C@@H]54)O[C@]4(CC[C@@H](C)CO4)[C@H]6C)C3)CC2)ccc1O
- viability at 10 µM (SH-SY5Y [1]): 10.3%

Structure (SMILES): C[C@@H]1CC[C@@]2(OC1)O[C@H]1C[C@H]3[C@@H]4CC[C@@H]5C[C@@H](OC(=O)N6CCN(C)CC6)CC[C@]5(C)[C@H]4CC[C@]3(C)[C@H]1[C@@H]2C
- Activity (SH-SY5Y [1]): inactive

Structure (SMILES): C[C@@H]1CC[C@@]2(OC1)O[C@H]1C[C@H]3[C@@H]4CC[C@@H]5C[C@@H](OC(=O)N(C)C)CC[C@]5(C)[C@H]4CC[C@]3(C)[C@H]1[C@@H]2C
- viability at 10 µM (SH-SY5Y [1]): 6.3%

Structure (SMILES): CC(=O)N[C@@H](CS)C(=O)O [ACETYLCYSTEINE]
- viability at 1000 µM (SH-SY5Y [3]): 37.1%

Structure (SMILES): C[C@@H]1CC[C@@]2(OC1)O[C@H]1C[C@H]3[C@@H]4CC[C@@H]5C[C@@H](OC(=O)N6CCN(CCO)CC6)CC[C@]5(C)[C@H]4CC[C@]3(C)[C@H]1[C@@H]2C
- Activity (SH-SY5Y [1]): inactive

Structure (SMILES): C[C@@H]1CC[C@@]2(OC1)O[C@H]1C[C@H]3[C@@H]4CC[C@@H]5C[C@@H](OC(=O)N6CCN(Cc7ccccc7)CC6)CC[C@]5(C)[C@H]4CC[C@]3(C)[C@H]1[C@@H]2C
- viability at 10 µM (SH-SY5Y [1]): 36.9%
- inhibition at 10 µM (RAW264.7): 18.3%
- Activity (SH-SY5Y [2]): Active

Structure (SMILES): C[C@@H]1CC[C@@]2(OC1)O[C@H]1C[C@H]3[C@@H]4CC[C@@H]5C[C@@H](OC(=O)NCc6ccc(Cl)cc6)CC[C@]5(C)[C@H]4CC[C@]3(C)[C@H]1[C@@H]2C
- viability at 10 µM (SH-SY5Y [1]): 45.5%
- inhibition at 10 µM (RAW264.7): 17.6%
- Activity (SH-SY5Y [2]): Active

Structure (SMILES): COc1ccc(CN2CCN(C(=O)O[C@H]3CC[C@@]4(C)[C@H](CC[C@@H]5[C@@H]4CC[C@]4(C)[C@@H]6[C@H](C[C@@H]54)O[C@]4(CC[C@@H](C)CO4)[C@H]6C)C3)CC2)cc1
- viability at 10 µM (SH-SY5Y [1]): 4.8%

Structure (SMILES): C[C@@H]1CC[C@@]2(OC1)O[C@H]1C[C@H]3[C@@H]4CC[C@@H]5C[C@@H](OC(=O)N6CCN(Cc7ccccc7O)CC6)CC[C@]5(C)[C@H]4CC[C@]3(C)[C@H]1[C@@H]2C
- viability at 10 µM (SH-SY5Y [1]): 38.4%
- inhibition at 10 µM (RAW264.7): 7.02%

Structure (SMILES): Cc1ccc(CNC(=O)O[C@H]2CC[C@@]3(C)[C@H](CC[C@@H]4[C@@H]3CC[C@]3(C)[C@@H]5[C@H](C[C@@H]43)O[C@]3(CC[C@@H](C)CO3)[C@H]5C)C2)cc1
- viability at 10 µM (SH-SY5Y [1]): 29.2%
- inhibition at 10 µM (RAW264.7): 6.8%
